From patent US11623919B2, “Heterocyclic P2X7 antagonists” (AXXAM S.P.A., priority 2017, dated 2023)

Experiments:
Format in all cases: cell-based
P2X7 receptor [1] = target: T1, P2X7 receptor (Homo sapiens, UniProt Q99572); assay: YO-PRO-1 uptake assay; set-up: expressed in transfected cells; settings: HEK-293 cells stably transfected with P2X7 receptor; Bz-ATP EC80 (30 μM); Low Divalent Cation Assay Buffer
T1 sequence (Q99572 1-595): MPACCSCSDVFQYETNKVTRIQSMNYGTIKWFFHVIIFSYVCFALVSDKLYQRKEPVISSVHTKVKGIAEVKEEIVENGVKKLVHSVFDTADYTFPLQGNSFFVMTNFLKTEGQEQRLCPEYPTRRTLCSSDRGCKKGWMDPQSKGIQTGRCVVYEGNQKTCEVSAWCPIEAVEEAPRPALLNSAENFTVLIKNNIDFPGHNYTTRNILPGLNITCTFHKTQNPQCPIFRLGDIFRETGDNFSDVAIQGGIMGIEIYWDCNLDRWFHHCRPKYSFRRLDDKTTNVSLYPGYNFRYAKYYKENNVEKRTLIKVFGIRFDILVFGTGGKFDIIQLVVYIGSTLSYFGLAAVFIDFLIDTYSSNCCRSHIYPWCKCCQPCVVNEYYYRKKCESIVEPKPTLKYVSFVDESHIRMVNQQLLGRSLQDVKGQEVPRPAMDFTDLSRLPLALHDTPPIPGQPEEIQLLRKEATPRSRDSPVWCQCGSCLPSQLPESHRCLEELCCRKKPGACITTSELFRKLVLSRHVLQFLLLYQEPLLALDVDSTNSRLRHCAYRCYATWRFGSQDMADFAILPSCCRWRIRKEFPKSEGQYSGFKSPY
From the text: YO-PRO®-1 is a fluorescent DNA-binding dye with a MW of 374 Da (Molecular Probes®, cat. Y3603). This method is based upon the presumed ability of YO-PRO®-1 to enter through the dilated or “large pore form” of P2X7 receptor and to bind to intracellular DNA whereupon it increases many fold its fluorescence intensity. The dye ha an absorption spectrum compatible with excitation at 488 nm by argon laser sources and its emission wavelength is in the range of 515-575 nm. The aim of this assay was to validate the interaction of antagonists with P2X7 receptor using an alternative readout to Ca2+-sensitive fluorescent dyes.
HEK-293 cells stably transfected with P2X7 receptor were seeded overnight un growth medium at 20,000 cell/well in 384-well plate. 24 hours later, the medium was removed, the cells were washed with Low Divalent Cation Assay Buffer (0.3 mM Ca^2+ and 0 mM Mg^2+) and then pre-loaded with 20 μL/w of 5 μM YO-PRO®-1 dye.
FLIPRTETRA fluorescence measurement immediately started. Then 10 μL/w of test compounds and reference antagonist A438079 at 3×-concentration were injected with the FLIPRTETRA and the kinetic response over a period of five minutes was monitored. A second injection of 10 μL/w of 3× Bz-ATP EC80 (30 μM) was performed with the FLIPRTETRA and the signal of the emitted fluorescence was recorded for additional 60 minutes. All the experiment was carried out with a Low Divalent Cation Assay Buffer (0.3 mM Ca^2+ and 0 mM Mg^2+).
The effect of the test compounds was measured as percent inhibition vs the reference antagonist and IC50 values were calculated accordingly.

P2X7 receptor [2] = target: T1, P2X7 receptor; assay: Automated patch-clamp (QPatch16X) P2X7 channel assay; set-up: expressed in transfected cells; host or cells: HEK-293; settings: HEK-293 cells expressing P2X7 channels; whole-cell, held at -80 mV; 100 microM BzATP; compound 1, 10, 100 and 1000 nM; read-out: Q-Patch (IC50)
Outline: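 Whole-cell patch clamp was run at room temperature on HEK-293 cells expressing P2X7, held at −80 mV with CsF internal and pH 7.4 NaCl external solutions. Currents were evoked by 100 µM BzATP alone and then with compound at 1, 10, 100 and 1000 nM. Peak inward currents were normalized and fitted to a Hill equation to give IC50.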

P2X7 receptor [3] = target: T1, P2X7 receptor; assay: Screen Quest Fluo-8 No Wash Calcium Assay (Bz-ATP evoked Ca2+ influx, FLIPR); set-up: hP2X7 (IC50; nM); other: hP2X7; HEK-293 cells stably transfected with P2X7 receptor, Bz-ATP at EC80, Fluo-8 NW; potency; settings: hP2X7; HEK-293 cells stably transfected with P2X7 receptor, Bz-ATP at EC80, Fluo-8 NW; potency ranges A-D
Outline: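 Compounds were added to Fluo-8-loaded P2X7-transfected HEK-293 cells 5 min before an EC80 Bz-ATP challenge, and Ca2+ influx was then recorded for 3 min. Buffer held 0.3 mM Ca2+ and no Mg2+. Inhibition was normalised to A438079, giving IC50 values.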

IC50 (P2X7 receptor [1])	IC50 (P2X7 receptor [2])	IC50 (P2X7 receptor [3])	Compound
142 nM	124 nM	200 to 1000 nM	CC1(C)CCCCC1Cn1c(Cc2c(F)cccc2Cl)noc1=O (stereo not drawn) [Example 99, 3-[(2-chloro-6-fluorophenyl)methyl]-4-[(2,2-dimethylcyclohexyl)methyl]-4,5-dihydro-1,2,4-oxadiazol-5-one]
129 nM	165 nM	200 to 1000 nM	O=c1onc(Cc2ccc(F)cc2Cl)n1CC1CCCCC1 [Example 114, 3-[(2-chloro-4-fluorophenyl)methyl]-4-(cyclohexylmethyl)-4,5-dihydro-1,2,4-oxadiazol-5-one]
